# According to article PMC3486876 (PLoS Neglected Tropical Diseases, 2012):
# Where “and” joins values, the source holds several entries; their conditions need not be identical. Identical values can stand only once. Like-named read-outs stand apart in the source and are kept apart here. Marks after values point to notes of the source that are not given here.
# Experiments:
# P-gp-deficient dogs = conditions: cited from earlier work
# Mdr1a-deficient mice = tested on: Mdr1a-deficient mice; parameters: method as in PMID 7910522; conditions: Mdr1a-deficient mice mutated on only the abcb1a gene; cited from earlier work
# [1] = no reference given; cited from earlier work
# [2] = target: T1, rat α1β2γ2 GABA(A) receptor (Rattus norvegicus, UniProt P18508+P62813+P63138); assay: Two-electrode voltage-clamp of GABA(A) receptor expressed in Xenopus laevis oocytes; format: cell-based; conditions: for Emax: read-out: Emax (maximum potentiation relative to GABA alone)
# T1 construct: expressed in transfected cells; host or cells: Xenopus laevis oocytes injected with cRNA (constructs a gift from Dr Erwin Sigel)
# Description: Oocytes from X. laevis, injected with foreign cDNA of the receptor of choice, are a commonly used tool for studying the activity of plasma membrane receptors. […] Isolation of oocytes from the frogs, defolliculation, culturing of the oocytes and injection of cRNA were performed as described previously. Oocytes were injected with 46 nl of RNA solution, with RNA coding for α1, β2 and γ2 subunits at a ratio of 10∶10∶50 nM [30]. The injected oocytes were incubated in modified Barth's solution [90 mM NaCl, 3 mM KCl, 0.82 mM MgSO4, 0.41 mM CaCl2, 0.34 mM Ca(NO3)2, 100 U/ml penicillin, 100 µg/ml streptomycin and 100 µg/ml kanamycin, 5 mM HEPES pH 7.6] at 18°C for approximately 36 h before the measurements to ensure the expression of a functional receptor.
# Electrophysiological experiments were performed by the two-electrode voltage-clamp method. Measurements were done in ND96 medium containing 96 mM NaCl, 2 mM KCl, 1 mM MgCl2, 1.8 mM CaCl2 and 5 mM HEPES, pH 7.5, at a holding potential of −80 mV. Currents were measured using a custom-made two-electrode voltage clamp amplifier in combination with an XY recorder (90% response time, 0.1 s). The intracellular electrodes were filled with 3 M KCl (resistance of 0.5–1.5 MΩ). […] The perfusion solution (6 ml/min) was applied through a glass capillary with an inner diameter of 1.35 mm. […] The modulatory compounds (IVM and MOX) were first dissolved in DMSO at 20 mM and then diluted in ND96 to the final concentration.
# Concentration ranges used were: IVM: 0.5 nM–10 µM; MOX: 1 nM–5 µM.
# A washout period of 5 min between each agonist application was introduced, allowing receptors to fully recover from desensitization. The perfusion system was cleaned, after application of MLs, between each experiment by washing with 10% DMSO in ND96 to avoid contamination. Three or four different batches of oocytes were used to collect data for each analysis.
# All experiments were conducted at least in triplicate. Differences in ML tissue concentrations were analyzed by one-way analysis of variance (ANOVA) with a Tukey post-test and are expressed as mean ± standard deviation (S.D.). […] Half-maximal concentrations (EC50), slope factors (Hill coefficients, nH) and maximal potentiation values for ML-induced activation of current were obtained using the Hill equation. Statistical analysis was performed using unpaired t-tests with Welch's correction to allow for differences in variances (GraphPad Instat, San Diego, CA, USA). Differences were considered statistically significant when p<0.05.
# [3] = tested on: purinergic (ATP) (cationic) receptors; conditions: cited from earlier work
# wild-type mice = conditions: cited from earlier work
# Mdr1ab(−/−) mice = assay: Neurological symptoms after subcutaneous administration; format: in vivo, mouse; conditions: for Neurological signs: 0.46 µmol/kg SC; for Start of neurotoxic signs (lethargy, tremors and/or ataxia): dose rates close to the respective LD50 (0.46 IVM, 2.3 MOX µmol/kg)
# Description: (§1) For acute toxicity experiments, Mdr1ab(−/−) mice (2–8 per dose rate) were injected subcutaneously with drug solutions at dose rates ranging from 0.1–1.75 mg/kg bw (0.11–2.0 µmol/kg bw) for IVM and 0.2–8.2 mg/kg bw (0.31–12.9 µmol/kg bw) for MOX. […] Mice were euthanized when severe tremors or ataxia were noted.
# acetylcholine receptors = tested on: acetylcholine receptors; parameters: method as in PMID 17707779; conditions: cited from earlier work
# [4] = Acute toxicity (14-day survival, LD50) after subcutaneous administration; conditions: mouse, in vivo, sc, Mdr1ab(−/−) mice, survival over 14 days, determined graphically
# Description: as §1
# P-gp = tested on: P-gp; parameters: method as in PMID 17134887; conditions: cited from earlier work
# [5] = Drug concentration in plasma and brain (HPLC) in Mdr1ab(−/−) mice; format: in vivo, mouse; conditions: 0.23 µmol/kg SC
# Description: For drug plasma concentration and brain accumulation assessment, Mdr1ab(−/−) mice were injected subcutaneously with an equivalent molar dose rate for both MLs in Mdr1ab(−/−) mice (6 animals per group): 0.23 µmol/kg, corresponding to 0.20 mg/kg and 0.15 mg/kg for IVM and MOX, respectively. Mice were sacrificed at 2 or 24 h after treatment.
# (§2) Mice were anesthetized 2 h or 24 h after administration with isoflurane and heparinized blood samples were collected from the orbital sinus vein. Immediately thereafter, mice were sacrificed by cervical dislocation and brains were rapidly removed. Blood samples were centrifuged at 1500 g for 10 min at 4°C and the plasma fraction was collected and stored at −20°C until analysis. The brains were washed in saline solution and frozen at −20°C until analysis.
# (§3) ML concentrations were determined in plasma and brain by high performance liquid chromatography (HPLC) with fluorescence detection according to previously described and validated methods, [25]. In brief, plasma and tissues were homogenised in acetonitrile (1∶1 v/v or 1∶2 v/w, respectively). Samples were centrifuged at 2000 g and the supernatant applied to a Supelco C18 cartridge (Supelco Inc., Bellefonte, PA, USA) by using automated solid phase extraction (SPE). […] The eluate was evaporated and the dry extract was processed to obtain a fluorophore derivative by dissolving it in 1N-methylimidazole and trifluoroacetic anhydride solutions. Samples were injected into the HPLC system (PU980 pump, Jasko, Tokyo, Japan; 360 automatic injector, Kontron, Paris, France; RF-551 fluorescence detector, Shimadzu, Kyoto, Japan). For IVM and MOX a Supelcosil LC18 column (250×4.6 mm, 5 µm, Supelco, Bellefonte, PA, USA) was used with acetic acid (0.2% in water)∶methanol∶acetonitrile (4∶40∶56, v/v/v) as mobile phase.
# [6] = as above; format: in vivo, mouse; conditions: 24 h post-treatment; for Brain concentration at LD50: determined graphically from Figure 3A; for Brain-to-plasma ratio (slope of brain vs plasma concentration): increasing doses
# humans = tested on: humans; parameters: method as in clinicaltrials.gov NCT00856362, NCT00300768, NCT00790998; conditions: approximately 1,700 people; ref clinicaltrials.gov NCT00856362, NCT00300768, NCT00790998; cited from earlier work
# [7] = Drug concentration in plasma and brain (HPLC) in wild-type mice; format: in vivo, mouse; conditions: 24 h post-treatment; for Brain concentration at LD50: determined graphically from Figure 3B; for Brain-to-plasma ratio (slope of brain vs plasma concentration): increasing doses
# Description: as §2, §3
# [8] = potentiation of current evoked by 2 µM GABA (EC10)
# [9] = oral administration, ref 20 (IVM), 21 (MOX)
# T1 sequence (P62813 28-455): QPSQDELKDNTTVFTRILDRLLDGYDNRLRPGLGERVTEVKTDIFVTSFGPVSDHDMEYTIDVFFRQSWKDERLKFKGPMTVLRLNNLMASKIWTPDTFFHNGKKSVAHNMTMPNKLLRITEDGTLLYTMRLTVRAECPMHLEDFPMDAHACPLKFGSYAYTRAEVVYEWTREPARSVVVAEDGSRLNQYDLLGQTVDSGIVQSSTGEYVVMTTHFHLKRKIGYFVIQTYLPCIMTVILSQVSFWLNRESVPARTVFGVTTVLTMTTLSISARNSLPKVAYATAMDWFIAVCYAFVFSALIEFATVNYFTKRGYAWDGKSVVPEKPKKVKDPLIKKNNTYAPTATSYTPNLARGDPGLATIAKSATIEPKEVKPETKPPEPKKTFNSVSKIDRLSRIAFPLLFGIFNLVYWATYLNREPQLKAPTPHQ
# T1 sequence (P63138 25-474 limits assumed): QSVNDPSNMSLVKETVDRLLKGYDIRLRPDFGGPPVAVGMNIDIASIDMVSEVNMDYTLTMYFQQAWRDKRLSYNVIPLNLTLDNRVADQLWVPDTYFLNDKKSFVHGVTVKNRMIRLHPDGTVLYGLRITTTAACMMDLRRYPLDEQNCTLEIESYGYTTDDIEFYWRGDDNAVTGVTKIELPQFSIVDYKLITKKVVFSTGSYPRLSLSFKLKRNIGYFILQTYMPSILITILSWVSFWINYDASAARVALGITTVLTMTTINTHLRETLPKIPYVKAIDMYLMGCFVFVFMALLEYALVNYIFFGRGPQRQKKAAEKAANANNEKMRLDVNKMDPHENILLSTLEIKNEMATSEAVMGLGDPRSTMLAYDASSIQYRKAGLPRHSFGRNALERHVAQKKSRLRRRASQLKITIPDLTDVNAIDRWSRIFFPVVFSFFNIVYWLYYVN
# T1 sequence (P18508 39-466): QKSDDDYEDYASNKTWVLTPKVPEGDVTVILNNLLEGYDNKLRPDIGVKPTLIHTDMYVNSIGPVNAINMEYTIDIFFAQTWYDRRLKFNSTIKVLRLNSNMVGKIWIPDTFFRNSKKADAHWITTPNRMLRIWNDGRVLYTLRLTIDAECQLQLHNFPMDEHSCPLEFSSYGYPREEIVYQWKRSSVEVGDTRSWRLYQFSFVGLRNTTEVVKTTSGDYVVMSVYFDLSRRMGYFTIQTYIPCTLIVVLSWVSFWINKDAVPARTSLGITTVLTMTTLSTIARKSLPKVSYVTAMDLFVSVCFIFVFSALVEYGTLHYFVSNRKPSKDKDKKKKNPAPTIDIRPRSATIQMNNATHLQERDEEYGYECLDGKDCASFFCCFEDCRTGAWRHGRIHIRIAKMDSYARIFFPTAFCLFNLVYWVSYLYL
structure (smiles),measurement,setting,value
CCC(C)[C@H]1O[C@]2(CC[C@@H]1C)C[C@@H]1C[C@@H](C/C=C(\C)[C@@H](O[C@H]3C[C@H](OC)[C@@H](O[C@H]4C[C@H](OC)[C@@H](O)[C@H](C)O4)[C@H](C)O3)[C@@H](C)/C=C/C=C3\CO[C@@H]4[C@H](O)C(C)=CC(C(=O)O1)[C@]34O)O2 (some centres unmarked) [Ivermectin],Signs of neurotoxicosis,"P-gp-deficient dogs; MDR1-deficient dogs, therapeutic dose 0.2 mg/kg",severe signs of neurotoxicosis
same,LD50,Mdr1a-deficient mice,0.6–0.8 µmol/kg bw
same,logP,[1],4.8
same,EC50,[2],33.8 ± 7.7 nM
same,Maximum potentiation of the GABA(A) receptor by IVM compared with MOX,[2]; co-application with 2 µM GABA,~2 fold
same,Concentration to reach Emax,[2]; [8],0.49 µM
same,Hill slope,[2]; [8],1.52±0.45
same,Hill slope,"[2]; potentiation of current evoked by 2 µM GABA (EC10), listed as IVM",1.52
same,Emax,[2],414 ± 66.1%
same,Concentration required to potentiate the receptors,[3],3 µM
same,LD50,wild-type mice,27–34 ^b µmol/kg
same,LD50,wild-type mice; [9],around 30 mg/kg
same,Behaviour of mice,Mdr1ab(−/−) mice; 0.11 µmol/kg SC,no changes in the behaviour of mice were observed
same,Neurological symptoms observed,"Mdr1ab(−/−) mice; 0.11 µmol/kg SC, 1 h post-treatment (ditto marks to 14 d)",Visually normal
same,Neurological symptoms observed,"Mdr1ab(−/−) mice; 0.40 µmol/kg SC, 1 h post-treatment (ditto marks to 5 h)",Visually normal
same,Neurological symptoms observed,"Mdr1ab(−/−) mice; 0.40 µmol/kg SC, 6 h post-treatment",Lethargy
same,Neurological symptoms observed,"Mdr1ab(−/−) mice; 0.40 µmol/kg SC, 7 h post-treatment, these mice euthanized",2/5 Ataxia ^c/tremor ^d ^†
same,Neurological symptoms observed,"Mdr1ab(−/−) mice; 0.40 µmol/kg SC, 12 h post-treatment",3/5 Sleepiness
same,Neurological symptoms observed,"Mdr1ab(−/−) mice; 0.40 µmol/kg SC, 1 d post-treatment (ditto marks to 14 d)",Visually normal
same,Neurological signs,Mdr1ab(−/−) mice; 6 h post-administration,severe neurotoxic signs
same,Neurological signs,Mdr1ab(−/−) mice; just after administration,hyperactivity
same,Neurological symptoms observed,"Mdr1ab(−/−) mice; 0.69 µmol/kg SC, 2 h post-treatment",Rapid breathing
same,Neurological symptoms observed,"Mdr1ab(−/−) mice; 0.69 µmol/kg SC, 5 h post-treatment",Ataxia ^c
same,Neurological symptoms observed,"Mdr1ab(−/−) mice; 0.69 µmol/kg SC, 6 h post-treatment, mice euthanized",Lethargy ^†
same,"Start of neurotoxic signs (lethargy, tremors and/or ataxia)",Mdr1ab(−/−) mice,6 h
same,Concentration required to potentiate the receptors,acetylcholine receptors,30 µM
same,LD50 at 14 days,[4],0.4 mg/kg and 0.46 µmol/kg
"NCCCC(=O)O [GABA, γ-aminobutyric acid]",EC10 (concentration producing 10% of maximal response),"[2]; GABA alone, n = 12",2080 ± 1180 nM
same,Hill slope,"[2]; GABA alone, n = 12",1.30±0.07 and 1.30±0.02
CO/N=C1\C[C@]2(C[C@@H]3C[C@@H](C/C=C(\C)C[C@@H](C)/C=C/C=C4\CO[C@@H]5[C@H](O)C(C)=C[C@@H](C(=O)O3)[C@]45O)O2)O[C@H](/C(C)=C/C(C)C)[C@H]1C [Moxidectin],"Effectiveness in inhibiting transport activity by P-gp, fold less than IVM",P-gp,10 fold
same,Dose safely used,"P-gp-deficient dogs; P-gp-deficient Collie dogs, spot-on application",up to 32.5 mg/kg
same,Signs of toxicosis,"P-gp-deficient dogs; P-gp-deficient dogs sensitive to IVM, 100 µg/kg daily for 7 days",did not produce signs of toxicosis
same,Toxicological signs,"P-gp-deficient dogs; dogs sensitive to 120 µg/kg oral IVM, similar molar dose rate, oral",did not produce any toxicological signs
same,logP,[1],6
same,EC50,[2],11.8 ± 9.2 nM
same,Concentration to reach Emax,[2]; [8],0.66 ^c µM
same,Hill slope,[2]; [8],0.34±0.56
same,Hill slope,"[2]; potentiation of current evoked by 2 µM GABA (EC10), listed as MOX",0.34±0.56 and 0.34
same,Emax,[2],257 ± 40.6%
same,Brain-to-plasma concentration ratio,[5]; 2 h,0.3 ± 0.1 mL/g
same,Drug concentration in brain,[5]; 2 h,18.8 ± 2.8 pmol/g
same,Drug concentration in brain,"[5]; 2 h, listed as MOX",18.8 ± 2.8 pmol/g
same,Brain-to-plasma concentration ratio,[5]; 24 h,2.2 ± 0.7 mL/g
same,Drug concentration in brain,[5]; 24 h,93.0 ± 28.9 pmol/g
same,Drug concentration in plasma,[5]; 24 h,42.8 ± 9.3 nM
same,Brain-to-plasma concentration ratio,"[5]; 24 h, listed as MOX",2.2 ± 0.7 mL/g
same,concentration at 2 h,"[5]; mouse, plasma, 2 h",60 ± 14.5 nM
same,concentration at 24 h,"[5]; mouse, plasma, 24 h",42.8 ± 9.3 nM
same,LD50,wild-type mice,70–131 ^b µmol/kg
same,LD50,wild-type mice; [9],86 mg/kg
same,Toxicity,Mdr1ab(−/−) mice; 0.46 µmol/kg SC (same dose rate as IVM),did not show any toxicity
same,Neurological symptoms observed,"Mdr1ab(−/−) mice; 2 µmol/kg SC, 1 h post-treatment",Visually normal
same,Neurological symptoms observed,"Mdr1ab(−/−) mice; 2 µmol/kg SC, 2 h post-treatment (ditto marks to 4 h; transient), listed as MOX",rapid breathing was transiently observed
same,Neurological symptoms observed,"Mdr1ab(−/−) mice; 2 µmol/kg SC, 5 h post-treatment (ditto marks to 14 d)",Visually normal
same,Neurological symptoms observed,"Mdr1ab(−/−) mice; 2.6 µmol/kg SC, 1 h post-treatment (ditto marks to 3 h)",Visually normal
same,Neurological symptoms observed,"Mdr1ab(−/−) mice; 2.6 µmol/kg SC, 4 h post-treatment (ditto marks to 8 h)",Sleepiness
same,Neurological symptoms observed,"Mdr1ab(−/−) mice; 2.6 µmol/kg SC, 12 h post-treatment, mice euthanized",Ataxia ^c/Tremor ^d ^†
same,Neurological symptoms observed,"Mdr1ab(−/−) mice; 4 µmol/kg SC, 1 h post-treatment",Balance problems
same,Neurological symptoms observed,"Mdr1ab(−/−) mice; 4 µmol/kg SC, 2 h post-treatment (ditto marks to 4 h)",Sleepiness
same,Neurological symptoms observed,"Mdr1ab(−/−) mice; 4 µmol/kg SC, 5 h post-treatment, mice euthanized",Ataxia ^c/Coma ^†
same,"Start of neurotoxic signs (lethargy, tremors and/or ataxia)",Mdr1ab(−/−) mice,4 h
same,Brain concentration at LD50,[6],830 ^c pmol/g
same,Brain concentration at LD50,[6]; listed as MOX,830 pmol/g
same,Brain-to-plasma ratio (slope of brain vs plasma concentration),[6],2.6 (R^2 = 0.936) ^e ml/g
same,Brain-to-plasma ratio (slope of brain vs plasma concentration),[6]; listed as MOX,2.6 mL/g
same,LD50 at 14 days,[4],1.47 mg/kg and 2.3 µmol/kg
same,Serious adverse events,humans,without evidence of any serious adverse events
same,Brain concentration at LD50,[7],740–1380 ^d pmol/g
same,Brain concentration at LD50,[7]; listed as MOX,740 to 1380 pmol/g
same,Brain-to-plasma ratio (slope of brain vs plasma concentration),[7],0.09 (R^2 = 0.984) ^e ml/g
same,Brain-to-plasma ratio (slope of brain vs plasma concentration),[7]; listed as MOX,0.09 mL/g
